Measurements from patent US20070021434A1, “NON-NUCLEOSIDE ANTI-HEPACIVIRUS AGENTS AND USES THEREOF” (Migenix Inc., priority 2005, published 2007).
Where two headings read alike, the source gives them in different places.

Legend:
[1] = target: T1, NS5B (Replizyme, UK), HCV genotype 1b Δ21 RdRp (UniProt P26663); type: biochemical, hepatitis C virus
T1 construct: other: Replizyme enzyme
Experimental: (§1) An RNA-dependant RNA polymerase assay was performed in a 96-well round bottom polypropylene plates (Costar) with a 50 μl reaction volume containing 20 mM HEPES pH 7.2-7.5 (Gibco), 1 mM DTT (Sigma), 0.4 mM MnCl2 (Sigma), 70 nM RNA template-primer PolyA (Amersham)-Oligo dT(20) biotin labelled (Roche), 20 μM UTP (Roche), 5U RNasin (Promega), 50 mM NaCl (Ambion), 4 μM DIG-11-UTP (Roche), test compound at desired concentration, 5% DMSO and 50-80 ng NS5B (Replizyme(V, UK) or 200-500 ng of recombinant NS5BA21 HCV RdRp enzyme. After 1 hour incubation at 30° C, the reaction is stopped by the addition of 5 μl 0.5 M EDTA and the solution is transferred to a streptavidin coated 96 well plate (Roche). Standard ELISA detection using Anti DIG-POD antibody (Roche) and BM Blue substrate is applied before measuring Abs at 450 nm. An illustration of the assay can be found in FIG. 1.

HCV RdRp = target: T2, HCV RdRp (Hepatitis C virus genotype 1b, UniProt P26663); conditions: literature value; read-out: Published IC50; cited from earlier work
T2 construct: The HCV encoded RNA-dependent RNA polymerase (HCV RdRp), also known as non-structural protein 5B (NS 5B)

[2] = target: recombinant NS5BΔ21 HCV RdRp enzyme (genotype 1b, produced in-house) (UniProt P26663); assay: RdRp assay with ELISA, recombinant in-house enzyme; type: biochemical, hepatitis C virus; conditions: read-out: Experimental IC50, Recombinant
Experimental: as §1

[3] = tested on: NS5B (Replizyme, UK), HCV genotype 1b Δ21 RdRp; type: biochemical, hepatitis C virus
Experimental: as §1

HCV RdRp (NS5B) = HCV RdRp (NS5B) (UniProt P26663); type: biochemical, hepatitis C virus
[4] = tested on: Huh-7 cells, sub-genomic genotype 1a HCV replicon H/SG-Neo; assay: Inhibition of HCV replication in cell culture, genotype 1a replicon; type: cell-based, hepatitis C virus
Experimental: (§2) Test compounds were solubilized at 30 mM in 100% tissue culture grade DMSO (Sigma, Inc.). Aliquots of test compounds sufficient for one daily treatment were made in individual tubes and all material was stored at −20° C. On each day of treatment, daily aliquots of the test compounds were suspended in culture medium at room temperature and immediately added to the cell cultures. Compounds were added to dividing cultures once daily for three days at concentrations ranging from about 30 μM to about 0.0003 μM. Media was changed with each addition of compound. The assays were started when cell cultures were at about 30-50% confluence, and the cells reached confluence during the last day of treatment. The assays included untreated control cultures (six total), and triplicate cultures treated with α-interferon and ribavirin as positive antiviral and toxicity controls.
(§3) Intracellular HCV RNA levels and cytotoxicity were assessed in triplicate 24 hours after the last compound dose.

[5] = tested on: Huh-7 cells, genotype 1b HCV replicon; assay: Inhibition of HCV replication in cell culture, genotype 1b replicon; type: cell-based, hepatitis C virus
Experimental: as §2, §3

[6] = read-out: Experimental IC50, Replizyme; Replizyme enzyme

T2 sequence (P26663 2420-3010): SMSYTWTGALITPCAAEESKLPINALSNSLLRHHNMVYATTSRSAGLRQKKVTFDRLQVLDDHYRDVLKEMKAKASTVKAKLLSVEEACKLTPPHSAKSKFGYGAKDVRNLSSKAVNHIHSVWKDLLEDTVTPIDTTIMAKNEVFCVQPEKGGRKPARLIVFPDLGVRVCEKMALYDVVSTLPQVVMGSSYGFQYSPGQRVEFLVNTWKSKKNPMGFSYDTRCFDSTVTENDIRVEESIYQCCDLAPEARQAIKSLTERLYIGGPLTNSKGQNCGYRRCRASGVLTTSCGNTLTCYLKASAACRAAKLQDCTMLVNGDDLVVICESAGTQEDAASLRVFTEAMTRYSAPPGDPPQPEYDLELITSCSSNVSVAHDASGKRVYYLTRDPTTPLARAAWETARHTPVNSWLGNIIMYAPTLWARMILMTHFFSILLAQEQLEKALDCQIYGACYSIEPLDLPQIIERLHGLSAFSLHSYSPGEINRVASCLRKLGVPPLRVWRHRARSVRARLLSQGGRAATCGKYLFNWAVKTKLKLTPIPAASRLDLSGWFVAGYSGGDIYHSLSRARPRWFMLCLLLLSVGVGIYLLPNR
Sequence of HCV RdRp (NS5B) (P26663 whole entry, looked up): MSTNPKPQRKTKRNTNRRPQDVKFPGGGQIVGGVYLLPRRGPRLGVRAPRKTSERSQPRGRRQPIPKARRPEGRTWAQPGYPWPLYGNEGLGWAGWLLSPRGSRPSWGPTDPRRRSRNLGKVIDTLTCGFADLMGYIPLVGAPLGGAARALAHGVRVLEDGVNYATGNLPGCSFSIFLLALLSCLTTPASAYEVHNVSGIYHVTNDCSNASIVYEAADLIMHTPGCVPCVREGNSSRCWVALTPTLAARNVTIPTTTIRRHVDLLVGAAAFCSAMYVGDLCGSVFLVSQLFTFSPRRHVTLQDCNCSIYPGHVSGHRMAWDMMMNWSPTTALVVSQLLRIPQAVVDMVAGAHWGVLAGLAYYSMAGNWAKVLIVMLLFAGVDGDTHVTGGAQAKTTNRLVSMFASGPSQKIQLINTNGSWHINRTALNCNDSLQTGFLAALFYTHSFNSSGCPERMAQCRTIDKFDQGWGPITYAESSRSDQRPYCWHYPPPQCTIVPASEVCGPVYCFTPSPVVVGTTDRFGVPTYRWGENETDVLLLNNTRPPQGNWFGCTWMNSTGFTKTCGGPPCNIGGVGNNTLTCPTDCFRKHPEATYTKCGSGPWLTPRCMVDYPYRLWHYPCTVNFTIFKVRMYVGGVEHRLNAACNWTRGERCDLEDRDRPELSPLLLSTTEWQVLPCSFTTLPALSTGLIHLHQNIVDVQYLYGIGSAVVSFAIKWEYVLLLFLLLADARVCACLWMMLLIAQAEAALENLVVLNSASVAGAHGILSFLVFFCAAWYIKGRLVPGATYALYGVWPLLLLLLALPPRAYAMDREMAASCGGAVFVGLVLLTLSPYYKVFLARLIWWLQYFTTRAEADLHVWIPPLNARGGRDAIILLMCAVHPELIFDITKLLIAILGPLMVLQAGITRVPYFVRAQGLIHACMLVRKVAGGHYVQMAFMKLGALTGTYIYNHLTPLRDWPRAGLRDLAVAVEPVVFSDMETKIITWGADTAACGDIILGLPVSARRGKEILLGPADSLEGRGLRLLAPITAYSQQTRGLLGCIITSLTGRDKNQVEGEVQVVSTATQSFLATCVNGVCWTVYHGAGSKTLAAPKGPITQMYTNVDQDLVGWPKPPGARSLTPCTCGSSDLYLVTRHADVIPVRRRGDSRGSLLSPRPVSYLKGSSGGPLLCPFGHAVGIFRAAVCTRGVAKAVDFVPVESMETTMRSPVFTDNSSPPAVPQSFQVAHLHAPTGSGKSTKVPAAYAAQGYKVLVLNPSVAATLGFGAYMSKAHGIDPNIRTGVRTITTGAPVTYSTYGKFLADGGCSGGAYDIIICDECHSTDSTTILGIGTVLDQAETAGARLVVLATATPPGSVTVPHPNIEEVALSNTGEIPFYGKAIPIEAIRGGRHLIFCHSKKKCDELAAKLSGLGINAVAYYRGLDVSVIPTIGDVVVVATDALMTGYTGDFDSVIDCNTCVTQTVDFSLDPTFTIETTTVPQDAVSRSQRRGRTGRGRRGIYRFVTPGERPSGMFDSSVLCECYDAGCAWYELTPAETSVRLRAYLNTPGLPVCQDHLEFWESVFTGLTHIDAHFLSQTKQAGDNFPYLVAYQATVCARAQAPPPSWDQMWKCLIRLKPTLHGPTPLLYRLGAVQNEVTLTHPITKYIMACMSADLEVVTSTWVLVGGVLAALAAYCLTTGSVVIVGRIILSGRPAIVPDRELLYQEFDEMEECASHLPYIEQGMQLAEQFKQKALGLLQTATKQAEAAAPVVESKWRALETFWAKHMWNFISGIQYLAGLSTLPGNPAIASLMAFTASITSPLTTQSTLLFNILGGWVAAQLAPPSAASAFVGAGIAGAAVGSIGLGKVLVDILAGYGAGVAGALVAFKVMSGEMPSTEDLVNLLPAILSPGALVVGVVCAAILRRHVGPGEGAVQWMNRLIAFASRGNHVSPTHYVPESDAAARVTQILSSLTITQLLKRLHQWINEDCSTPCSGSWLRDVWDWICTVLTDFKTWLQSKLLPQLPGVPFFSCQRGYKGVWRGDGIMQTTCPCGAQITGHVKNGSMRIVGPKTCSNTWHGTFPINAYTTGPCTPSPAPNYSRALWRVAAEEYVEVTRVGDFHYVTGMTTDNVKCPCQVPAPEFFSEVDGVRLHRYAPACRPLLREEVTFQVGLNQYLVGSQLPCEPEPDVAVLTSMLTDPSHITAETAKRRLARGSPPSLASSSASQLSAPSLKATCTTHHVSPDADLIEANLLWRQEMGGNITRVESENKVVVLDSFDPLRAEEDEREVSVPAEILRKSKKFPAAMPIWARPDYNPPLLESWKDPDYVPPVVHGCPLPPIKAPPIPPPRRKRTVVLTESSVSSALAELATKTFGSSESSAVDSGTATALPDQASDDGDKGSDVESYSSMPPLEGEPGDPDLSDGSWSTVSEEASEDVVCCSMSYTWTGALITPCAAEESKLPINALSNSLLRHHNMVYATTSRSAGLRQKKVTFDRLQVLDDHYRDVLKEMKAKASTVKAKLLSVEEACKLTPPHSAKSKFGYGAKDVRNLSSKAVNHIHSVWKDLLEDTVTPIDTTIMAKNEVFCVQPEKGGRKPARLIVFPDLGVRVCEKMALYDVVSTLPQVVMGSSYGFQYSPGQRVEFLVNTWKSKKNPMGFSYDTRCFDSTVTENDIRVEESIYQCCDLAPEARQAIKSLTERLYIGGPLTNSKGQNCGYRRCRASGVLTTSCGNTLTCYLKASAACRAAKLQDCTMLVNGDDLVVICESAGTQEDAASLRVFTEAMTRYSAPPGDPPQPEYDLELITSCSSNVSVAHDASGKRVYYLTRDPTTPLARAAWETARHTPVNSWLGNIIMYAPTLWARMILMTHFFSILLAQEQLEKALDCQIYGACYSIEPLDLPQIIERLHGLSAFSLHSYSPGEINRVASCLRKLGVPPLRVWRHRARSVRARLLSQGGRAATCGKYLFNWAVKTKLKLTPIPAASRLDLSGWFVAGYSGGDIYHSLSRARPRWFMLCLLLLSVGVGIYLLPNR

## CCCCn1c(=O)c(C2=NS(=O)(=O)c3ccccc3N2)c(O)c2ccccc21
[1]; [6]
  IC50: 1000 nM
HCV RdRp
  IC50: 240 nM
[2]
  IC50: 1800 nM

## CC(C)Cn1c(=O)c(C2=Nc3ccccc3S(=O)(=O)N2)c(O)c2ccccc21
[1]; [6]
  IC50: 2300 nM
HCV RdRp
  IC50: 340 nM
[2]
  IC50: 2800 nM

## O=c1ccn([C@@H]2O[C@H](COP(=O)(O)OP(=O)(O)OP(=O)(O)O)C[C@H]2O)c(=O)[nH]1 [3′-dUTP]
[1]; Replizyme enzyme; read-out: Experimental IC50, Replizyme
  IC50: 130 nM

## O=C(O)COc1ccc2[nH]cc(C[C@H](NC(=O)c3ccc4c(c3)nc(-c3ccoc3)n4C3CCCCC3)C(=O)O)c2c1
[1]; [6]
  IC50: 1300 nM
[3]
  times less inhibition with the Replizyme enzyme than with the prepared enzyme: about 20
HCV RdRp
  IC50: 1150 nM
[2]
  IC50: 60 nM

## O=C(O)c1ccc2c(c1)nc(-c1ccccn1)n2C1CCCCC1
[1]; [6]
  IC50: 69000 nM
[3]
  times less inhibition with the Replizyme enzyme than with the prepared enzyme: about 20
HCV RdRp
  IC50: 4360 nM
[2]
  IC50: 3500 nM

## Cc1cc2cc(NC(=O)[C@H](CCCCN)NC(=O)Nc3ccc(OCc4ccccc4)cc3)ccc2[nH]1 [Compound 206, (S)-6-AMINO-2-[3-(4-BENZYLOXY-PHENYL)-UREIDO]-HEXANOIC ACID (2-METHYL-1H-INDOL-5-YL)-AMIDE]
HCV RdRp (NS5B)
  IC50: 10000 to 50000 nM
[4]; Hepatitis C virus, Huh-7, genotype 1a replicon, intracellular HCV RNA 24 h after 3 daily doses
  EC50: > 2000 nM
[4]; genotype 1a replicon, CC50 by neutral red uptake
  Selectivity Index (CC50/EC50): <20
[5]; Hepatitis C virus, Huh-7, 24 h, Huh-7, genotype 1b replicon, intracellular HCV RNA 24 h after 3 daily doses, read-out: EC50
  EC50: > 2000 nM
[5]; genotype 1b replicon, CC50 by neutral red uptake
  Selectivity Index (CC50/EC50): <20
